These results are taken from US7989441B2, “Organic compounds” (Novartis AG, priority 2005, dated 2011).

Experiment [1] concerns GST-BIR3 fusion protein (BIR3 peptide binding pocket). Put plainly: FMAT solution phase assay: competition of GST-BIR3 off Smac peptide beads. The procedure: (§1) In order to measure the ability of the inventive compounds to bind the BIR3 peptide binding pocket, a solution phase assay on the FMAT or ELISA technology platform is utilized.
Biotinylated Smac 7-mer peptide (AVPIAQK, lysine ε-amino group is biotinylated) is immobilized on streptavidin coated beads. GST-BIR3 fusion protein is precipitated with FMAT beads and is detected using fluorescent tagged anti-GST antibodies. […] The IC50 for non-biotinylated Smac is 400 nM.

Experiment [2] concerns the target T1, GST-BIR3 fusion containing amino acids 248-358 from XIAP (Homo sapiens, UniProt P98170).
T1 construct: a GST-BIR3 fusion containing amino acids 248-358 from XIAP was used
Put plainly: XIAP BIR3 Smac Elisa. In kind it is binding. The following applies: concentration which displaces half of GST-BIR3 signal, IAP not given. Here is the method: as §1
(§2) Compounds are incubated with GST-BIR3 fusion protein and biotinylated SMAC peptide (AVPFAQK) in stretavidin-coated 96-well plates. For XIAP BIR3 Smac Elisa, a GST-BIR3 fusion containing amino acids 248-358 from XIAP was used. For CIAP1 BIR3 Smac Elisa, a GST-BIR3 fusion containing amino acids 259-364 from CIAP1 was used. Following a 30-minute incubation, wells are extensively washed. The remaining GST-BIR3 fusion protein is monitored by ELISA assay involving first, incubation with goat anti-GST antibodies followed by washing and incubation with alkaline phosphatase conjugated anti-goat antibodies. Signal is amplified using Attophos (Promega) and read with Cytoflour Ex 450 nm/40 and Em 580 nm. IC50s correspond to concentration of compound which displaces half of GST-BIR3 signal. The IC50 for non-biotinylated Smac is 400 nM.

Experiment [3] deals with T2, GST-BIR3 fusion containing amino acids 259-364 from CIAP1 (Homo sapiens, UniProt Q13490).
T2 construct: a GST-BIR3 fusion containing amino acids 259-364 from CIAP1 was used
T2 sequence (Q13490 259-364): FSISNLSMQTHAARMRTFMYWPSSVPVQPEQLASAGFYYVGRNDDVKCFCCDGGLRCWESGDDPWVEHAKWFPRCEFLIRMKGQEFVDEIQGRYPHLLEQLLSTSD
Put plainly: CIAP1 BIR3 Smac Elisa. The following applies: concentration which displaces half of GST-BIR3 signal, IAP not given. It is filed as binding. Here is the method: as §1, §2

pIC50: −log10 of the molar value. Residues, ends and D or L forms follow the SMILES beside them.

T1 sequence (P98170 248-358): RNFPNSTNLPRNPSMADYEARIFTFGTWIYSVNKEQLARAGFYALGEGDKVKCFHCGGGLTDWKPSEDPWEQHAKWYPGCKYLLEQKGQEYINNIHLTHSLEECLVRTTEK

Turning to `CC[C@H](C)[C@H](NC(=O)[C@@H]1CCCN1C(=O)[C@@H](NC(=O)[C@H](C)N)C(C)C)C(=O)N[C@@H](C)C(=O)N[C@@H](CCC(N)=O)C(=O)N[C@@H](CCCCN)C(=O)O` [non-biotinylated Smac] (H-AVPIAQK-OH; N-terminus and C-terminus assumed), the “competing GST-BIR3 off the FMAT beads” value in experiment [1] (FIG. 2) is reported as “highly effective”. Moreover, the pIC50 in experiment [1] (FMAT, displacement of GST-BIR3 from biotinylated Smac 7-mer peptide (AVPIAQK) beads) is 6.40; in experiment [2], 6.40; in experiment [3] it was 6.40.

By pIC50 is commonly meant the negative decadic logarithm of the IC50, by convention in mol/L.
